Entries after “also recorded” stand apart in the source; their conditions may differ.
How the values were obtained:
Format in all cases: cell-based, human
CDC6 = CDC6 protein (immunoblot) and RNA (RT-qPCR) levels in A2780 cells; conditions: 2.5 μM for 6 or 14 hours
Description: (§1) FIG. 4. Effects of Enone-2 on cell cycle and on the expression levels of replication licensing factors (RLF). (A) Representative cell cycle profiles showing progressive accumulation of A2780 ovarian carcinoma cells in the G2/M phase of the cell cycle following 24 hour treatment with 2.5 or 5 μM Enone-2. Quantification of results is shown in the form of pie charts on the right. PI: propidium iodide. (B) & (C) A2780 cells were treated with 2.5 μM Enone-2 for 6 or 14 hours and analyzed for CDC6 protein levels by immunoblot (B), or RNA levels by reverse transcription qPCR (C). The RNA levels of the RLF CDT1 were also measured by qPCR (C). ***P<0.001; **P<0.01.
(§2) Replication licensing factors (RLF) such as CDC6, MCM2-MCM7, ORC and CDT1 form origins of DNA replication in the G1 phase of the cell cycle and initiate DNA replication during the S phase. CDC6 is also involved in S-M checkpoint mechanisms that ensure that the entire genome is replicated just once per cell division. Cancer cells frequently display deregulated expression of RLFs; for example, CDC6 is over-expressed in colorectal and ovarian carcinoma and is associated with poor patient prognosis. […] Because of these characteristics, RLFs are considered as novel targets for anti-cancer therapy. […]

[1] = tested on: HT29 colorectal carcinoma cells; experiment: MTT conversion assay, HT29; conditions: Homo sapiens, HT-29, HT29, colon, 48 hrs treatment
Description: (§3) In particular, Enone-1 and Enone-2 were tested for cytotoxic activity in 17 cell lines representing a broad spectrum of human tumors. They include human colorectal carcinoma (Caco2, RKO, HCT15, HT29), liver (HepG2), lung (A549), ovarian carcinoma (A2780, 2780CP, AGE60, SKOV3), anaplastic large cell lymphoma (Mac1 and Mac2a), breast carcinoma (MDA-MB-231), cervical (HeLa), bladder cancer (VM-CUB-1), melanoma (BRO), and multiple myeloma (MR20).
(§4) Each assay was performed in triplicate and repeated in 2-3 independent experiments. Specifically, to measure cell survival, 20 μl of 10 mg/ml MTT (3-([…])-2,5-diphenyl tetrazolium bromide; Sigma) was added to each well and the plates were incubated at 37° C. in 5% CO2 for 3 hours. The supernatant was removed and the formed crystals were dissolved in 200 μl dimethyl sulphoxide. The plates were then analysed at 450 nm on a plate reader. Growth inhibition (reduction in survival) was calculated by expressing the differences in optical densities between treatment wells and control wells as a percentage of the control.

A549 lung cells = experiment: MTT conversion assay, A549; conditions: Homo sapiens, 48 hrs treatment
Description: as §3, §4

p53 = p53 immunoblot in A2780 cells; conditions: 2.5 μM or increasing concentrations, 6 hrs or time course
Description: FIG. 8: Enones induce the p53 pathway. […] Cell lysates were analyzed for p53 and GAPDH (loading control). (B) A2780 cells were cultured in the presence or absence of 2.5 μM for the indicated time points before being analyzed for p53 and GAPDH levels. (C) Treatment of A2780 cells with 2.5 μM Enone-2 results in the up-regulation of p53-regulated genes (*p<0.05; **p<0.01; ***p<0.001, n=4). (D) Induction of p53 accumulation in AGE60 ovarian carcinoma cells following 6 or 14 hr exposure to 2.5 μM Enone-2. (E) Enone-1 induces the p53 pathway in A2780 cells which were cultured in the presence of 2.5 μM of the drug and analyzed as in (B). (F) Treatment of A2780 cells with 2.5 μM Enone-2 results in the up-regulation of p53-regulated genes (*p<0.05; **p<0.01; ***p<0.001, n=3).
The effects of Enone-2 on p53 and p53-dependent transcription of cell cycle and cell death-associated genes was confirmed by immunoblotting for p53 and by reverse transcription qPCR (RT-qPCR) for mdm2, p21, bax and bbc3/puma, established p53 target genes.

[2] = tested on: VM-CUB-1 bladder cancer cells; experiment: MTT conversion assay, VM-CUB-1; conditions: Homo sapiens, 48 hrs treatment
Description: as §3, §4

γH2Ax = γH2Ax immunoblot (DNA damage response marker) in A2780 cells; conditions: 6 hrs, increasing concentrations, relative to untreated controls
Description: FIG. 9. […] A2780 cells were cultured for 6 hrs in the presence of drug concentrations as indicated. (B) Effects of siRNA targeting RPL11 (siRPL11), Chek2 (siChek2) or the unrelated luciferase (Luci) genes on RPL11 and Chek2 mRNA levels quantified by RT-PCR. (C) Effects of siRpl11 on Enone-2 and oxaliplatin (OXA)-induced p53 activation. Expression levels relative to GAPDH are indicated; untreated controls (CNT) were given the arbitrary value of 1. […] Expression levels relative to GAPDH are indicated; untreated controls (CNT) were given the arbitrary value of 1.

CDT1 = CDT1 RNA levels (qPCR) in A2780 cells; conditions: 2.5 μM for 6 or 14 hours
Description: as §1, §2

IC50 [1]: 900 nM
IC50 (A549 lung cells): 1500 nM
IC50 [2]: 800 nM
Compound: C[C@@]1(O)C=CC(=O)[C@H]1c1ccc(F)c2ccccc12 (stereo in doubt) [Enone-2, 5-(4-fluoronaphthalen-1-yl)-4-hydroxy-4-methylcyclopent-2-en-1-one]
CDC6 RNA and protein levels (CDC6): reduce the key RLF CDC6 in a time-dependent manner at both RNA and protein levels
p53 accumulation (immunoblot) (p53): robust p53 accumulation; also recorded: robustly induced p53 accumulation
γH2Ax induction (marker of DDR) (γH2Ax): no effect relative to untreated controls
CDT1 RNA levels (CDT1): reduce CDT1 RNA levels

From patent US20250268844A1, “ANTICANCER AGENTS BASED ON CYCLOPENTENONES” (UNIVERSITY OF CRETE, priority 2022, published 2025)
